Laboratory results: ChEMBL document CHEMBL4834393, “Building a Chemical Toolbox for Human Pregnane X Receptor Research: Discovery of Agonists, Inverse Agonists, and Antagonists Among Analogs Based on the Unique Chemical Scaffold of SPA70” (J Med Chem, 2021)
The source made the active and inactive calls. The calls are words filed in the database; no cut-off is given here.

Legend:
[1] = target: T1, Nuclear receptor subfamily 1 group I member 2 (Homo sapiens, UniProt O75469); assay: Antagonist activity at human PXR expressed in HepG2 cells co-expressing luciferase gene under control of CYP3A4 promoter incubated for 24 hrs in presence of 5 uM rifampicin by luciferase reporter assay
T1 sequence (O75469 whole entry): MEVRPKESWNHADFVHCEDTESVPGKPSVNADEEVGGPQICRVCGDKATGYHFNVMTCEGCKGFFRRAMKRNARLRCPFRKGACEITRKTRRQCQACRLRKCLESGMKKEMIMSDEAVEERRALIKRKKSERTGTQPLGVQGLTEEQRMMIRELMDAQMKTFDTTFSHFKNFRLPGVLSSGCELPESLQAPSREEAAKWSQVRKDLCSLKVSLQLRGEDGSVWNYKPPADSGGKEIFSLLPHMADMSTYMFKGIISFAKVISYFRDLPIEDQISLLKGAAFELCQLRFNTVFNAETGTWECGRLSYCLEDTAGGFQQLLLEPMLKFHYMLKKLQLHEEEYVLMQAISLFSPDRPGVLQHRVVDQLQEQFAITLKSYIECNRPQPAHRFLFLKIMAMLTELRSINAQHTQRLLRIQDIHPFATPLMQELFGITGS

[2] = target: T2, Vitamin D3 receptor (Homo sapiens) (UniProt P11473); assay: Agonist activity at human VDR expressed in HEK293T cells by luciferase reporter assay; assay type: cell-based
T2 sequence (whole entry): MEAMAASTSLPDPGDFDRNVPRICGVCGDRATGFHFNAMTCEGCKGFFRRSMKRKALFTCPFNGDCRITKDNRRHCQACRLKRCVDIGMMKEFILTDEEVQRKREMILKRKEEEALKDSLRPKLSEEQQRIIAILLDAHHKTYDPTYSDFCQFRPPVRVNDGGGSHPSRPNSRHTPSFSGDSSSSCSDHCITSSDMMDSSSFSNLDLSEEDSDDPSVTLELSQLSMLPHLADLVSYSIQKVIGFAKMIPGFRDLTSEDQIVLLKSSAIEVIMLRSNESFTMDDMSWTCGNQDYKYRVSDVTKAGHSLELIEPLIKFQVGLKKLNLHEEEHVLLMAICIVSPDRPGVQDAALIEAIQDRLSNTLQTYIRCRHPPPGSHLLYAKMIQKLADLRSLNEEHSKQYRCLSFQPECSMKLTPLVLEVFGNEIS

[3] = tested on: constitutive androstane receptor, NR1I3 (Homo sapiens); assay: Agonist activity at human CAR by luciferase reporter assay
PXR (NR1I2) [4] = target: T3, PXR (NR1I2) (Homo sapiens, UniProt O75469); assay: Inhibition of human PXR expressed in HepG2 cells co-expressing luciferase gene under control of CYP3A4 promoter at 10 uM incubated for 24 hrs in presence of 5 uM rifampicin by luciferase reporter assay relative to control; assay type: cell-based
T3 sequence (O75469 whole entry): T1 sequence (O75469 whole entry)

PXR (NR1I2) [5] = target: T3, PXR (NR1I2); assay: Agonist activity at human PXR expressed in HepG2 cells co-expressing luciferase gene under control of CYP3A4 promoter at 10 uM incubated for 24 hrs by luciferase reporter assay relative to control
[6] = target: T1, Nuclear receptor subfamily 1 group I member 2; assay: Displacement of BODIPY FL vindoline from GST-tagged human PXR LBD incubated for 60 mins by TR-FRET assay
[7] = target: T4, Bile acid receptor (Homo sapiens) (UniProt Q96RI1); assay: Agonist activity at human FXR expressed in HEK293T cells by luciferase reporter assay; assay type: cell-based
T4 sequence (whole entry): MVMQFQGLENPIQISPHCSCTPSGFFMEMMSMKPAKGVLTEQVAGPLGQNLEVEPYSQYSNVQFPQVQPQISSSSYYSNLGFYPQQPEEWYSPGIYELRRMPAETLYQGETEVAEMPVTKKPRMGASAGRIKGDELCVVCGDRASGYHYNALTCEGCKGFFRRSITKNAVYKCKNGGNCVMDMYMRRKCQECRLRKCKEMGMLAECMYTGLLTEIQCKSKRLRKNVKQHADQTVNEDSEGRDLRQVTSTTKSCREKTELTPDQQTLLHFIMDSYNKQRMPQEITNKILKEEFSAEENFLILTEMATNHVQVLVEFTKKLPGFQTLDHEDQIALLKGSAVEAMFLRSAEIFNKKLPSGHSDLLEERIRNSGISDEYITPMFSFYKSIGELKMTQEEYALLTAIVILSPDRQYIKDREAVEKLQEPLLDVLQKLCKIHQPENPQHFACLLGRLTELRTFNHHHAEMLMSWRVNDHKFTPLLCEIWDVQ

HepG2 = assay: Cytotoxicity against human HepG2 cells co-expressing luciferase gene under control of CYP3A4 promoter measured after 24 hrs by CellTiter-Glo luminescent cell viability assay; assay type: ADME, cell-based; details: for Activity: human, hepg2, 24 h, time 24 hrs
[8] = target: T1, Nuclear receptor subfamily 1 group I member 2; assay: Agonist activity at human PXR expressed in HepG2 cells co-expressing luciferase gene under control of CYP3A4 promoter incubated for 24 hrs by luciferase reporter assay
[9] = target: T2, Vitamin D3 receptor (Homo sapiens); assay: Antagonist activity at human VDR expressed in HEK293T cells in presence of 1alpha,25-dihydroxyvitamin D3 by luciferase reporter assay; assay type: cell-based
PXR (NR1I2) [10] = target: T3, PXR (NR1I2); assay: Displacement of BODIPY FL vindoline from GST-tagged human PXR LBD at 10 uM incubated for 60 mins by TR-FRET assay relative to control; details: GST-tagged human PXR LBD (recombinant protein), probe BODIPY FL vindoline
[11] = target: T4, Bile acid receptor (Homo sapiens); assay: Antagonist activity at human FXR expressed in HEK293T cells in presence of GW4064 by luciferase reporter assay; assay type: cell-based
[12] = target: T5, Nuclear receptor subfamily 1 group I member 2 (Mus musculus, UniProt O54915); assay: Antagonist activity at mouse PXR in presence of PCN by luciferase reporter assay
T5 sequence (O54915 whole entry): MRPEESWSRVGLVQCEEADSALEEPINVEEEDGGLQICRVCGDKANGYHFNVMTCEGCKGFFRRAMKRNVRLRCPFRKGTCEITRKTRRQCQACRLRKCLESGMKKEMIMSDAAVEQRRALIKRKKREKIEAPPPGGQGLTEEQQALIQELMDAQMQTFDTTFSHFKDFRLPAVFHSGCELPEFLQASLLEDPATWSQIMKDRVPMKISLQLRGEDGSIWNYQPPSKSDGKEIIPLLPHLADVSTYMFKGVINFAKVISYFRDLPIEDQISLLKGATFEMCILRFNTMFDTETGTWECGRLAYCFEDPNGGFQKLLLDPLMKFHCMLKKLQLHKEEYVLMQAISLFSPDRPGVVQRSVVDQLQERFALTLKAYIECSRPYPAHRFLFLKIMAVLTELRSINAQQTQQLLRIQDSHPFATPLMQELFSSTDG

[13] = target: T5, Nuclear receptor subfamily 1 group I member 2; assay: Agonist activity at mouse PXR by luciferase reporter assay; assay type: ADME

Row | SMILES | IC50 [1] [µM] | Activity [2] | Activity [3] | inhibition at 24 h, 10 µM (PXR (NR1I2) [4]) [%] | activity at 24 h, 10 µM (PXR (NR1I2) [5]) [%] | IC50 [6] [µM] | Activity [7] | Activity (HepG2) | EC50 [8] [µM] | Activity [9] | inhibition at 1 h, 10 µM (PXR (NR1I2) [10]) [%] | Activity [11] | Activity [12] | Activity [13] | IC50 (HepG2; Homo sapiens, HepG2, 24 h) [µM]
1 | COc1ccc(F)cc1-n1nnc(S(=O)(=O)c2ccc(C(C)(C)C)cc2)c1C | 0.7 | inactive | inactive | 70 | 37 | 0.4 | inactive | Non-Toxic | 0.24 | inactive | 80 | inactive | Not Active |  | 
2 | CCc1c(S(=O)(=O)c2ccc(C(C)(C)C)cc2)nnn1-c1cc(OC)ccc1OC |  |  | inactive |  |  |  |  | Non-Toxic |  |  |  |  | Not Active | Not Active | 
3 | COC(=O)c1cc(OC)c(-n2nnc(S(=O)(=O)c3ccc(C(C)(C)C)cc3)c2C)cc1Cl | 10 |  |  | 51 | 62 | 0.7 |  |  | 1.9 |  | 35 |  |  |  | 
4 | COc1cc(C)c(Cl)cc1-n1nnc(S(=O)(=O)c2ccc(C(C)(C)C)cc2)c1C | 2.3 |  |  | 64 | 33 | 1.2 |  |  | 1 |  | 87 |  |  |  | 
5 | COc1ccc(CO)cc1-n1nnc(S(=O)(=O)c2ccc(C(C)(C)C)cc2)c1C | 2 |  |  | 64 | 82 | 1.4 |  |  | 0.81 |  | 95 |  |  |  | 
6 | COc1cc(-n2nnc(S(=O)(=O)c3ccc(C(C)(C)C)cc3)c2C)c(OC)cc1F | 2 |  |  | 72 | 24 | 4 |  |  | 1 |  | 87 |  |  |  | 
7 | COc1ccc(C)cc1-n1nnc(S(=O)(=O)c2ccc(C(C)(C)C)cc2)c1N | 3.3 |  |  | 46 | 73 | 0.28 |  |  | 0.16 |  | 88 |  |  |  | 
8 | COC(=O)c1cc(OC)c(-n2nnc(S(=O)(=O)c3ccc(C(C)(C)C)cc3)c2C)cc1C | 6 |  |  | 32 | 75 | 1.5 |  |  | 1.6 |  | 64 |  |  |  | 
9 | COc1cc(C(C)=O)c(C)cc1-n1nnc(S(=O)(=O)c2ccc(C(C)(C)C)cc2)c1C | 9 |  |  | 111 | 77 | 1.4 |  |  | 0.4 |  | 80 |  |  |  | 16.5
10 | COc1ccc(OC)c(-n2cc(S(=O)(=O)c3ccc(C(C)(C)C)cc3)nn2)c1 | 3.4 |  |  | 71 | 35 | 1.4 |  |  | 1.4 |  | 98 |  |  |  | 
11 | COc1cc(Cl)c(C)cc1-n1nnc(S(=O)(=O)c2ccc(C(C)(C)C)cc2)c1C | 2 |  |  | 57 | 51 | 0.7 |  |  | 0.8 |  | 71 |  |  |  | 
12 | COc1cc(C#N)c(Cl)cc1-n1nnc(S(=O)(=O)c2ccc(C(C)(C)C)cc2)c1C | 3.4 |  |  | 44 | 49 | 0.6 |  |  | 1 |  | 40 |  |  |  | 
13 | COc1ccc(OC)c(-n2nnc(S(=O)(=O)c3ccc(C(C)(C)C)cc3)c2N)c1 | 1.7 |  |  | 52 | 53 | 0.18 |  |  | 0.43 |  | 85 |  |  |  | 
14 | COc1ccc(Cl)cc1-n1nnc(S(=O)(=O)c2ccc(C(C)(C)C)cc2)c1C#N |  | inactive | inactive |  | 105 | 0.061 | inactive | Non-Toxic | 0.08 | inactive | 90 | inactive | Not Active | Not Active | 
15 | COc1ccccc1-n1nnc(S(=O)(=O)c2ccc(C(C)(C)C)cc2)c1C | 1 |  |  | 53 | 56 | 0.53 |  |  | 0.8 |  | 103 |  |  |  | 
16 | COc1ccc(Cl)cc1-n1nnc(S(=O)(=O)c2ccc(C(C)(C)C)cc2)c1N | 4.4 |  |  | 78 | 42 | 0.5 |  |  | 0.11 |  | 93 |  |  |  | 
17 | COc1ccc(OC)c(-n2nnc(S(=O)(=O)c3ccc(C(C)(C)C)cc3)c2C#N)c1 | 2.4 |  |  | 38 | 88 | 0.3 |  |  | 0.26 |  | 97 |  |  |  | 
18 | COc1cc(C#N)c(C)cc1-n1nnc(S(=O)(=O)c2ccc(C(C)(C)C)cc2)c1C | 4 |  |  | 33 | 58 | 1.07 |  |  | 1.6 |  | 48 |  |  |  | 
